Laboratory results as given in patent US12251427B2, “Reduced oxygen carriers and their use for the treatment of carboxyhemoglobinemia” (priority 2016, dated 2025).

Key:
[1] = cited from earlier work; for Kd: CO; for kon: rate of CO binding; for koff: rate of CO dissociation
[2] = tested on: mice exposed to 30,000 ppm (3%) CO gas; assay: Severe CO poisoning mouse model: survival and hemodynamics; format: in vivo; conditions: for effect on hemodynamic collapse (heart rate, mean arterial blood pressure) induced by CO: infusion after 4.5 minutes of 3% CO; for mortality: 3% CO 4.5 minutes
Description: To establish a model for cardiovascular and mortality end points, tracheally intubated, ventilated, anesthetized mice were exposed to 30,000 ppm (3%) CO gas, with 21% oxygen and 1.5% isoflurane for 4.5 minutes. Mice were surgically instrumented with placement of jugular venous (for infusion of drug) and carotid arterial (for blood pressure and heart rate monitoring) catheters. In this model, there was 88.2% (15/17) mortality in a group infused with 300 μL of PBS post exposure, while all mice that received an infusion of 11 mM myoglobin survived (0% mortality; n=5). Survival of mice infused with myoglobin was due to the reversal in hemodynamic collapse and bradycardia induced by CO (FIG. 5).
(§1) Tracheally intubated, ventilated, anesthetized mice were exposed to 30,000 ppm (3%) CO gas, with 21% oxygen and 1.5% isoflurane for 4.5 minutes. Mice were surgically instrumented with placement of jugular venous (for infusion of drug) and carotid arterial (for blood pressure and heart rate monitoring) catheters. In this model, all mice that received PEG-Hb (n=3) survived. The concentration infused was 10 mM at approximately 200 to 250 microliters volume.

HbCO [3] = assay: Severe CO poisoning mouse model: HbCO level by spectrometry; format: in vivo, mice
Description: To establish a model for cardiovascular and mortality end points, tracheally intubated, ventilated, anesthetized mice were exposed to 30,000 ppm (3%) CO gas, with 21% oxygen and 1.5% isoflurane for 4.5 minutes. Mice were surgically instrumented with placement of jugular venous (for infusion of drug) and carotid arterial (for blood pressure and heart rate monitoring) catheters.
(§2) Through the jugular venous catheter, the HbCO level was sampled using spectrometry. […] Mouse half-life for CO is much faster than for humans.
as §1, with “In this model, all mice that received PEG-Hb (n=3) survived.” left out
as §2

[4] = tested on: isolated liver mitochondria; assay: Mitochondrial respiration, Clark-type oxygen electrode, isolated liver mitochondria; design: species or system rat; conditions: for reduction of respiration: tissue not specified
Description: Mitochondrial respiration was measured before and after CO gas exposure in a Clark-type oxygen electrode respirometry system. The effects of infusion of both reduced hemoglobin and myoglobin were evaluated. Fresh liver was collected from a normal rat, and mitochondria were isolated through differential centrifugation. For left ventricle (LV) tissue, fresh LV was collected from a normal rat and then homogenized. The resulting mitochondria and LV tissue was put into the Clark-type electrode air tight reaction chamber, then substrates (succinate (mitochondria) or malate and pyruvate (LV) and ADP) were added. Mitochondria respired to 0% oxygen and then the system was reoxygenated with a pipetted injection of room air. Mitochondria respired back down to the desired 02 concentration. At this point, CO was added, either in gas form or saturated PBS solution. The system was then reoxygenated, and respiration occurred down to 0%. These rates of respiration were compared with pre-CO exposure. The reason for the first reoxygenation step was to more equally compare rates of mitochondria that have experienced some hypoxia, which can damage their function. After this was completed, CO scavenging agents were added, the system was reoxygenated and this final rate of respiration was compared both to pre-CO and post-CO respiration.
CO was then infused, the system was reoxygenated, and rates of respiration were compared. After respiration to 0% 02, myoglobin was infused, the system was reoxygenated and the rates were compared.
CO poisoning has long term effects on patients, and one theory is the poisoning of mitochondria leads to generation of increased reactive oxygen species (ROS) through the inhibition of complex IV of the electron transport chain. A model to measure the amount of inhibition produced by CO exposure and quantify it through respiratory rates was developed. In a Clark electrode, the oxygen respiration of isolated mitochondria from rat livers and left ventricle (LV) homogenate was measured, with the addition of the substrates succinate and ADP to measure maximal respiration. […] This effect was stronger in more hypoxic states, consistent with the known competition between CO and O2 for binding at the heme in cytochrome c oxidase (62% reduction in hypoxia versus ˜50% in normoxia).

[5] = Safety of oxygen carriers in healthy mice; format: in vivo; conditions: for tolerability of infusion: retro-orbital injection, 8-12 mM, observed for 48 hours; for blood chemistries: serum at 48 hours; for hematology profile: whole blood at 48 hours
Description: Healthy mice were anesthetized with 3% isoflurane gas and myoglobin and hemoglobin were injected into the retro-orbital space. […] At 48 hours, the animals were sacrificed, their serum was analyzed for blood chemistries and whole blood was tested for complete blood count.

LV homogenate = assay: Cardiac tissue respiration, Clark-type oxygen electrode, LV homogenate; design: species or system rat
Description: Mitochondrial respiration was measured before and after CO gas exposure in a Clark-type oxygen electrode respirometry system. The effects of infusion of both reduced hemoglobin and myoglobin were evaluated. Fresh liver was collected from a normal rat, and mitochondria were isolated through differential centrifugation. For left ventricle (LV) tissue, fresh LV was collected from a normal rat and then homogenized. The resulting mitochondria and LV tissue was put into the Clark-type electrode air tight reaction chamber, then substrates (succinate (mitochondria) or malate and pyruvate (LV) and ADP) were added. Mitochondria respired to 0% oxygen and then the system was reoxygenated with a pipetted injection of room air. Mitochondria respired back down to the desired 02 concentration. […]
CO poisoning has long term effects on patients, and one theory is the poisoning of mitochondria leads to generation of increased reactive oxygen species (ROS) through the inhibition of complex IV of the electron transport chain. A model to measure the amount of inhibition produced by CO exposure and quantify it through respiratory rates was developed. In a Clark electrode, the oxygen respiration of isolated mitochondria from rat livers and left ventricle (LV) homogenate was measured, with the addition of the substrates succinate and ADP to measure maximal respiration. […]

HbCO [6] = assay: In vitro model of CO poisoning: CO scavenging from HbCO / carboxylated RBCs; format: biochemical
Description: FIGS. 4A-4C are graphs showing the in vitro binding of CO from hemoglobin by wild type equine myoglobin. PBS or myoglobin (100 μL) was infused into a solution containing carboxylated red blood cells in the presence of 5 mM sodium dithionite at 37° C. Samples were taken from the reaction mixture at several time points and the RBCs were separated from the supernatant (containing the Mb) by centrifugation. The amount of HbCO/MbCO in each fraction was determined by UV-vis spectroscopy. (FIG. 4A) Carboxylated RBCs mixed with PBS. (FIG. 4B and FIG. 4C) Two sample experiments where different amounts of carboxylated RBCs were mixed with Mb. […]
Oxygenated or deoxygenated myoglobin (Mb) was prepared following the same procedure as that described for the experiments with pure Hb. In some experiments, after initiating the reaction, red cells were separated from Mb to measure absorbance spectra. […] Hb absorbance in the lysed RBC solution was measured with the Cary 50 spectrophotometer in a 1 cm path length cuvette. This cycle was repeated six times, each 1.5-5 minutes, giving six absorbance measurements of the Hb. […] The time when absorbance of hemoglobin was measured in the reaction was assumed to be the time elapsed after injection of Mb to 15 or 30 seconds after the start of centrifugation (for 30 or 60 second centrifugation durations, respectively). […]

Human Hb (beta subunit, R-state): human hemoglobin beta subunit, R-state
Kd [1]: 0.946 nM
kon [1]: 7.4e+06 M⁻¹ s⁻¹
koff [1]: 0.007 s⁻¹

PEG-Hb: surface conjugation of polyethylene glycol to human hemoglobin; artificial oxygen carrier
survival ([2]; 10 mM, approximately 200 to 250 microliters, n=3): survived
effect on hemodynamic collapse (heart rate, mean arterial blood pressure) induced by CO [2]: restored
HbCO level (HbCO [3]; five minutes after infusion, Example 9): 66%
HbCO level (HbCO [3]; ten minutes after treatment, Example 9): 62%

Human Hb (alpha subunit, R-state): human hemoglobin alpha subunit, R-state
Kd [1]: 2 nM
kon [1]: 6e+06 M⁻¹ s⁻¹
koff [1]: 0.012 s⁻¹

Human Hb (alpha subunit, T-state): human hemoglobin alpha subunit, T-state
Kd [1]: 1750 nM
kon [1]: 120000 M⁻¹ s⁻¹
koff [1]: 0.21 s⁻¹

Human Hb (beta subunit, T-state): human hemoglobin beta subunit, T-state
Kd [1]: 3800 nM
kon [1]: 50000 M⁻¹ s⁻¹
koff [1]: 0.19 s⁻¹

hemoglobin: hemoglobin, natural oxygen carrier, infused in reduced (deoxy) form as CO scavenger
increase of respiration from the CO inhibited rate ([4]; 0.5 equimolar, after CO gas): 95%
tolerability of infusion [5]: well tolerated
blood chemistries [5]: normal kidney and liver function
hematology profile [5]: only a slight decline in platelets
survival ([2]; infused with <4 mM): died
survival ([2]; infused with ≥4 mM): all survived
effect on hemodynamic collapse (heart rate, mean arterial blood pressure) induced by CO [2]: reversed

[C-]#[O+] [CO, carbon monoxide]
decrease of respiration from pre-CO (maximal) respiration ([4]; CO gas versus room air): 60.5%
reduction of respiration ([4]; hypoxia): 62%
reduction of respiration ([4]; normoxia): ~50%
decrease of respiration from pre-CO (maximal) respiration (LV homogenate; CO gas versus air): 75.6%

B1: Equine Myoglobin: wild type equine myoglobin, natural oxygen carrier, used in reduced (deoxy) form as CO scavenger (protein, UniProt P68082 2-154, looked up)
Myoglobin: GLSDGEWQQVLNVWGKVEADIAGHGQEVLIRLFTGHPETLEKFDKFKHLKTEAEMKASEDLKKHGTVVLTALGGILKKKGHHEAELKPLAQSHATKHKIPIKYLEFISDAIIHVLHSKHPGDFGADAQGAMTKALELFRNDIAAKYKELGFQG
modifications: deoxy form
notes: wild type equine myoglobin, natural oxygen carrier, used in reduced (deoxy) form as CO scavenger
tolerability of infusion [5]: well tolerated
blood chemistries [5]: normal kidney and liver function
hematology profile [5]: only a slight decline in platelets
survival ([2]; concentration greater than 11 mM, n=10): 100%
survival ([2]; concentrations less than 11 mM, n=4): 0%
concentration needed to reverse the hemodynamic collapse induced by severe CO poisoning ([2]; infused concentration): greater than 11 mM
effect on hemodynamic collapse (heart rate, mean arterial blood pressure) induced by CO [2]: reversal
effect on hemodynamic collapse (heart rate, mean arterial blood pressure) induced by CO ([2]; listed as reduced myoglobin): restoration
mortality ([2]; infusion of 11 mM, n=5): 0%
mortality ([2]; infusion of 300 μL of 11.5 mM reduced form): 0%
HbCO level (HbCO [3]; five minutes after infusion, Example 4): 65.04%
HbCO level (HbCO [3]; ten minutes after treatment, Example 4): 52.8%
increase of respiration from the CO inhibited rate (LV homogenate; 0.5 equimolar, after CO gas): 199%
affinity for CO relative to oxygen ([1]; CO versus O2): 60 fold
Kd [1]: 68.8 nM
kon [1]: 510000 M⁻¹ s⁻¹
koff [1]: 0.035 s⁻¹
HbCO reduced, CO bound by myoglobin (HbCO [6]; 100% HbCO, anaerobic, added in a 1:1 ratio): more than half
HbCO concentration reduced (HbCO [6]; added in deficit: 110.8 μM HbCO versus 85.3 μM deoxy-myoglobin): one third
